Results reported in ChEMBL document CHEMBL5543153, “Discovery of a Potent Dual Son of Sevenless 1 (SOS1) and Epidermal Growth Factor Receptor (EGFR) Inhibitor for the Treatment of Prostate Cancer” (J Med Chem, 2024).
Calls of active or inactive are those of the source. The calls are words filed in the database; no cut-off is given here.

Key:
PC-3 [1] = test: Induction of apoptosis in human PC-3 cells assessed as viable cells at 2.5 uM by Annexin V-FITC staining based flow cytometry (reference value: 94.9%); assay type: functional; conditions: read-out: Activity
Calu-1 = test: Antiproliferative activity against human Calu-1 cells harboring KRAS G12C mutant assessed as inhibition of cell growth incubated for 72 hrs by MTT assay; assay type: functional, cell-based; conditions: Calu-1, 72 h
PC-3 [2] = test: Induction of apoptosis in human PC-3 cells assessed as necrotic cells at 2.5 uM by Annexin V-FITC staining based flow cytometry (reference value: 0.48%); assay type: functional
[3] = molecular target: T1, Son of sevenless homolog 1 (Homo sapiens, UniProt Q07889); test: Inhibition of human recombinant SOS1
T1 sequence (Q07889 whole entry): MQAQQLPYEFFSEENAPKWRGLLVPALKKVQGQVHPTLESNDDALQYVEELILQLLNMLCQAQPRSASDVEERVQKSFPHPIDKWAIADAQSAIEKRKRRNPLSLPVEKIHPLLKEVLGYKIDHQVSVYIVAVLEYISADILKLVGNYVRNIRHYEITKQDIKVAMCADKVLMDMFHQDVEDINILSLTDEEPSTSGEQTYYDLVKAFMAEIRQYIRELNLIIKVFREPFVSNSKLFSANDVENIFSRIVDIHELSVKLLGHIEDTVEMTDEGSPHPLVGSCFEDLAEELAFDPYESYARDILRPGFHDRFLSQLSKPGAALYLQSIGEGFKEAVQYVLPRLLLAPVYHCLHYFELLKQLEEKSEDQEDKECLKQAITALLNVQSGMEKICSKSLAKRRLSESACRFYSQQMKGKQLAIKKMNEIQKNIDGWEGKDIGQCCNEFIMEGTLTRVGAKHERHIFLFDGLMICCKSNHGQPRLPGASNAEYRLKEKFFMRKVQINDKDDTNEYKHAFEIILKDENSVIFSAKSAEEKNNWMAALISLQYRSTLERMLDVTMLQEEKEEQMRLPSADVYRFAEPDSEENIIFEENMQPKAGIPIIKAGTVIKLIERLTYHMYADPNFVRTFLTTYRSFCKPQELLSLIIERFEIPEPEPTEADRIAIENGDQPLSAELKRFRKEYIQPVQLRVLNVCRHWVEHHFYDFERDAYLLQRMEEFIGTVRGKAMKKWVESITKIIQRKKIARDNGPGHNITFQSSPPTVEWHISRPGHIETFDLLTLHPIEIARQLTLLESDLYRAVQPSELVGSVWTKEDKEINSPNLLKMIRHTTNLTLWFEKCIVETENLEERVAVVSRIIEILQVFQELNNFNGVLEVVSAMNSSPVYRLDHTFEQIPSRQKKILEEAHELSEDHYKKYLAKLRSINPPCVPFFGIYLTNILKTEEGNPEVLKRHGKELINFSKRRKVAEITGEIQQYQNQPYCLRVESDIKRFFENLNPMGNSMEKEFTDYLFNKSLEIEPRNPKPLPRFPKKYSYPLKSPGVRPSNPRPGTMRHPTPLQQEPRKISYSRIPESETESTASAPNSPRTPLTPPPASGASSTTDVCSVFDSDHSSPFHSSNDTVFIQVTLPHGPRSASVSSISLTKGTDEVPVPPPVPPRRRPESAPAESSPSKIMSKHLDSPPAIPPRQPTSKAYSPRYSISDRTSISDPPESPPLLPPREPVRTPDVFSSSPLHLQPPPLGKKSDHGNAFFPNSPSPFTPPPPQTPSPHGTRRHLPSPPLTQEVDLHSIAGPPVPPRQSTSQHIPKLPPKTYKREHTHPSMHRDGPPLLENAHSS

[4] = molecular target: T2, Son of sevenless homolog 1 (Homo sapiens) (UniProt Q07889); test: Inhibition of SOS1 in human PC-3 cells assessed as downregulation of ERK phosphorylation at 12.5 uM incubated for 15 mins by Western blotting analysis; assay type: cell-based
T2 sequence (whole entry): T1 sequence (Q07889 whole entry)

PC-3 [5] = test: Antitumor activity against human PC-3 cells xenografted in BALB/c mouse assessed as reduction in tumor volume at 20 mg/kg,ip administrated once every 4 days for 24 days; assay type: functional, organism-based; conditions: time 24.0 day
DLD-1 = test: Antiproliferative activity against human DLD-1 cells assessed as inhibition of cell growth incubated for 72 hrs by MTT assay; assay type: functional, cell-based
HUVEC [6] = test: Antiangiogenic activity in HUVEC cells assessed as reduction in tube master junction at 0.5 to 12.5 uM incubated for 8 hrs by matrigel based microscopic analysis; assay type: functional, cell-based; conditions: Homo sapiens, dose 0.5-12.5 µM
K562 = test: Antiproliferative activity against human K562 cells assessed as inhibition of cell growth incubated for 72 hrs by MTT assay; assay type: functional, cell-based
[7] = molecular target: Epidermal growth factor receptor (Homo sapiens, UniProt P00533); test: Inhibition of EGFR (unknown origin) using ultra ULight GT peptide as substrate incubated for 2 hrs
[8] = molecular target: T2, Son of sevenless homolog 1 (Homo sapiens); test: Inhibition of SOS1 in human PC-3 cells assessed as downregulation of ERK phosphorylation at 2.5 uM incubated for 15 mins by Western blotting analysis; assay type: cell-based
[9] = Toxicity in BALB/c mouse xenografted with human PC-3 cells assessed as lung pathological change at 20 mg/kg,ip administrated once every 4 days for 24 days by hematoxylin and eosin staining based analysis; assay type: organism-based; conditions: in vivo, 576 h, time 24 day
[10] = Toxicity in BALB/c mouse xenografted with human PC-3 cells assessed as change in blood urea nitrogen level at 20 mg/kg,ip administrated once every 4 days for 24 days by automatic biochemical analyzer; assay type: organism-based; conditions: in vivo, 576 h, time 24 day
[11] = Toxicity in BALB/c mouse xenografted with human PC-3 cells assessed as change in blood urea nitrogen level at 5 mg/kg,ip administrated once every 4 days for 24 days by automatic biochemical analyzer; assay type: organism-based; conditions: in vivo, 576 h, time 24 day
[12] = molecular target: T2, Son of sevenless homolog 1 (Homo sapiens); test: Inhibition of SOS1 in human PC-3 cells assessed as downregulation of RAS-GTP expression at 0.5 uM incubated for 15 mins by Western blotting analysis; assay type: cell-based
PC-3 [13] = test: Induction of cell cycle arrest in human PC-3 cells assessed as accumulation of cells at S phase at 0.5 uM by PI staining based flow cytometry (reference value: 16.58%); assay type: functional
HUVEC [14] = test: Inhibition of cell migration in HUVEC cells at 0.5 to 12.5 uM measured after 48 hrs by crystal violet staining based transwell invasion assay; assay type: functional; conditions: Homo sapiens, dose 0.5-12.5 µM
[15] = molecular target: T2, Son of sevenless homolog 1 (Homo sapiens); test: Inhibition of SOS1 in human PC-3 cells assessed as downregulation of AKT phosphorylation at 0.5 uM incubated for 15 mins by Western blotting analysis; assay type: cell-based
[16] = Toxicity in BALB/c mouse xenografted with human PC-3 cells assessed as heart pathological change at 5 mg/kg,ip administrated once every 4 days for 24 days by hematoxylin and eosin staining based analysis; assay type: organism-based; conditions: in vivo, 576 h, time 24 day
PC-3 [17] = test: Antiproliferative activity against human PC-3 cells transfected with SOS1 and EGFR shRNA assessed as inhibition of cell growth incubated for 72 hrs by MTT assay; assay type: functional, cell-based; conditions: PC-3, 72 h
[18] = molecular target: T2, Son of sevenless homolog 1 (Homo sapiens); test: Inhibition of SOS1 in human PC-3 cells assessed as downregulation of ERK phosphorylation at 0.5 uM incubated for 15 mins by Western blotting analysis; assay type: cell-based
PC-3 [19] = test: Induction of apoptosis in human PC-3 cells assessed as viable cells at 0.5 uM by Annexin V-FITC staining based flow cytometry (reference value: 94.9%); assay type: functional; conditions: read-out: Activity

Chain of Epidermal growth factor receptor (P00533 whole entry): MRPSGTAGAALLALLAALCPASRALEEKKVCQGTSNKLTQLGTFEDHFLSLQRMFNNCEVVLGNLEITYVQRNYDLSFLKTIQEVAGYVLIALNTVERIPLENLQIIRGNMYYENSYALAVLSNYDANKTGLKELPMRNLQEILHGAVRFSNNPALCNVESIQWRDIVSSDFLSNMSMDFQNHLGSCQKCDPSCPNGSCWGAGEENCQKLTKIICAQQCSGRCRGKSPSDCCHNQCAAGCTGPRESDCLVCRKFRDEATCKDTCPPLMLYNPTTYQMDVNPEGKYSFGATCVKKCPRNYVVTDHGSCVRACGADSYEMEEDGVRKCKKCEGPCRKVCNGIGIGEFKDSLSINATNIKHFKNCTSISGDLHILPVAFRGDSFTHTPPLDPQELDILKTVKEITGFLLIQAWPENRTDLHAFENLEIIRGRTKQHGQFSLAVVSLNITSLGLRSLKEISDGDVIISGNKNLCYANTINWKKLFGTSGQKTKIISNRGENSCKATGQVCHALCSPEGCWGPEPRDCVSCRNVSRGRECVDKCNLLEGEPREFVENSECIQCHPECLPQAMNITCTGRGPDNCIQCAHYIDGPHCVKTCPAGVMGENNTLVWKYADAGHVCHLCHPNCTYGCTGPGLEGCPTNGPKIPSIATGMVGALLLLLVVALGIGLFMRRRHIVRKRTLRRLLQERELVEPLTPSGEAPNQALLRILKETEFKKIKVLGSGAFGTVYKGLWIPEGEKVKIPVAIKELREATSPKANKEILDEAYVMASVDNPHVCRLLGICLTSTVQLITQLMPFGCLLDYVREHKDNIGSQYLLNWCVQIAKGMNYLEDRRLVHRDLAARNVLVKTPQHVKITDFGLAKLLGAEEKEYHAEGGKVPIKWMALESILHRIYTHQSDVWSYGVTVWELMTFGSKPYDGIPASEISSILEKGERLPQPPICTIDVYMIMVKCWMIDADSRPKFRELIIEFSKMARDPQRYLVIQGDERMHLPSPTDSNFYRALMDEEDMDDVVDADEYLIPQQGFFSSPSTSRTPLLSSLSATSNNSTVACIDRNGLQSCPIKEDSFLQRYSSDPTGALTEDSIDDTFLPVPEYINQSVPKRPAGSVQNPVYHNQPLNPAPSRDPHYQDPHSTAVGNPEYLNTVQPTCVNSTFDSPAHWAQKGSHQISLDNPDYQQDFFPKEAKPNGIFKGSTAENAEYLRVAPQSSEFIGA

COc1cc2ncnc(N[C@H](C)c3cccc(F)c3)c2cc1OC1CCOCC1
viability at 2.5 µM (PC-3 [1]): 79.1%
IC50 (Calu-1): 550 nM
Activity (PC-3 [2]): 0.57%
IC50 [3]: 42.1 nM
inhibition [4]: Active
Activity (PC-3 [5]): Active
Activity (DLD-1): Active
Activity (HUVEC [6]): Active
Activity (K562): Active
IC50 [7]: 1.01 nM
inhibition [8]: Active
Activity [9]: Toxic
Activity [10]: Non-Toxic
Activity [11]: Non-Toxic
inhibition [12]: Active
Activity (PC-3 [13]): 10.84%
inhibition (HUVEC [14]): Active
inhibition [15]: Active
Activity [16]: Toxic
IC50 (PC-3 [17]): > 10000 nM
inhibition [18]: Active
viability at 0.5 µM (PC-3 [19]): 84.9%
